How the values were obtained:
Aphidius rhopalosiphi = experiment: LR50; higher = less toxic; conditions: acute; duration: 48 hours; mortality
Anas platyrhynchos = conditions: oral, feed
Tagia sp. = conditions: acute; duration: 14 days; mortality
Colinus virginianus = conditions: acute; oral; mortality
Daphnia magna = conditions: chronic/long-term; duration: 21 days; mortality
Canidae = conditions: oral, Dog Other, clinical chemistry
Apis mellifera = conditions: acute, duration: 48 hours, mortality
Oncorhynchus mykiss = conditions: chronic/long-term; duration: 87 days; mortality
Cyprinus carpio = conditions: acute; duration: 96 hours; mortality

Question: Which LR50 (Aphidius rhopalosiphi) does the source give for `CCS(=O)(=O)c1nc2ccccn2c1S(=O)(=O)NC(=O)Nc1nc(OC)cc(OC)n1` [Sulfosulfuron] here?
Answer: > 29.7 g/ha

Question: And the NOEL (Anas platyrhynchos; reproductive)?
Answer: 33.7 mg/kg-day

Question: And the LD50 (Anas platyrhynchos; short-term, mortality)?
Answer: > 1350 mg/kg-day

Question: And the LC50 (Tagia sp.)?
Answer: > 848 mg/kg

Question: And the LD50 (Colinus virginianus)?
Answer: > 2250 mg/kg-day

Question: And the NOEC (Daphnia magna)?
Answer: 102 mg/L

Question: What about the NOAEL (Canidae; chronic, duration: 1 years) of the same compound?
Answer: 100 mg/kg-day

Question: What about the NOAEL (Canidae; subchronic, duration: 90 days) of the same compound?
Answer: 100 mg/kg-day

Question: And the LD50 (Apis mellifera; dermal)?
Answer: > 25 µg/piece

Question: What about the LD50 (Apis mellifera; oral, unspecified) of the same compound?
Answer: > 30 µg/piece

Question: What about the NOEC (Oncorhynchus mykiss) of the same compound?
Answer: 100 mg/L

Question: And the LC50 (Cyprinus carpio)?
Answer: > 91 µg/mL

Question: And the LD50 (Rattus norvegicus; acute, oral, mortality)?
Answer: > 5000 mg/kg-day

Question: What about the NOAEL (Rattus norvegicus; chronic, duration: 2 years, histopathology: nonneoplastic) of the same compound?
Answer: 24.4 mg/kg-day

Question: What about the NOAEL (Rattus norvegicus; reproduction developmental, duration: 22 months, oral, diet, body weight) of the same compound?
Answer: 312 mg/kg-day
